Source: patent US20220000818A1, “COMPOSITIONS FOR USE IN PREVENTING ACNE” (Nogra Pharma Limited, priority 2019, published 2022)

Legend:
Format in all cases: cell-based, human
SZ95 sebocytes [1] = assay: Metabolic activity and cell viability of SZ95 sebocytes; conditions: SZ95-S or SZ95-SF sebocytes exposed to NAC-GED0507
Method: (§1) Immortalized human SZ95 sebocytes (Zouboulis et al., 1999), showing morphologic, phenotypic, and functional characteristics of normal human sebocytes, were cultured in 5% CO2 at 37° C. in Sebomed basal medium, 1% L-glutamine, 1% penicillin/streptomycin, 5 ng/mL recombinant human epidermal growth factor, and 1 mM CaCl2, with or without 10% FBS supplement. All experiments were performed at least in triplicate.
SZ95-SF and SZ95-S sebocytes were cultured for an additional 24 hours in the presence of 0.1 μM insulin and/or 1 mM of the PPARγ modulator N-acetyl-(S)-3-(4′-aminophenyl)-2-methoxypropionic acid (“NAC-GED0507”).

SZ95 sebocytes [2] = assay: GC-MS analysis of fatty acid production (lipogenesis) in SZ95 sebocytes; conditions: insulin and NAC-GED0507, 48 hours or 72 hours
Method: as §1
Lipids were extracted from SZ95 sebocytes using a modified version of the protocol described in Bligh E G and Dyer W J, J Biochem Physiol, 1959. Lipids were extracted with chloroform: methanol (2:1) solution (2×1 mL) after the addition of butylhydroxytoluene to prevent oxidation of oxygen sensitive compounds. 5 μg of methylated tricosanoic acid was added as internal standard to control the analytical performance and to calculate the relative abundance of the fatty acids detected. Organic layers were collected and evaporated under nitrogen. Dried lipid extract was dissolved in 100 μL acetone/methanol/isopropanol (40:40:20) solution and 20 μL were used for the analysis of bound fatty acids (FA).
Bound fatty acids (FA) were analyzed as FA methyl esters (FAME) obtained after derivatization. For simultaneous saponification and methylation of bound FA, 250 μL KOH solution (0.5 M) in anhydrous methanol was added to the dried extract and incubated at 37° C. for 20 minutes with constant shaking. 0.5 mL HCl (0.25 M) was added to neutralize the alkaline reaction mixture. After vortexing, 0.25 mL K2SO4 (6.7%) and 1 mL hexane:isopropanol (3:2 v/v) solution containing 0.0025% BHT were added and vortexed. After centrifugation, the lipid enriched upper phase was transferred to an Eppendorf tube and evaporated under nitrogen. The dried FAME extract was dissolved in 50 μL n-hexane and analyzed by GC-MS to establish FA profiles in the lipid extracts (Thermo-Finnigan, Waltham, Mass., USA). Chromatographic separation was carried out on a HP-FFAP capillary column (Agilent Technologies, Santa Clara, Calif., USA; crosslinked FFAP, length 50 m, film thickness 0.52 μm). Helium was used as the carrier gas. The initial GC oven temperature was 40° C. and was linearly ramped up to 240° C. at 8° C./min. The total run time was 60 min. The injector and the GC-MS transfer lines were kept at 230° C. and 250° C., respectively. Total ion chromatograms (TIC) were acquired, and areas of single peaks, corresponding to the FAME, were integrated with the qualitative analysis software. Identity of the detected FAME was verified by comparison with authentic standards and matched with library spectral data.
SZ95-SF and SZ95-S sebocytes were also cultured for 48 hours or 72 hours in the presence of insulin and NAC-GED0507.

[3] = tested on: pAkt and pS6 (PI3K/Akt pathway) in SZ95 sebocytes; assay: Western blot of insulin-induced pAkt and pS6 in SZ95 sebocytes; conditions: SZ95-SF cells, 0.1 μM insulin and 1 mM NAC-GED0507, 24 hours
Method: as §1
(§2) For protein extraction, cells were lysed in RIPA buffer (50 mM Tris-HCl pH 7.4, 1% Nonidet P40, 0.25% deoxycholate, 150 mM NaCl, 1 mM EDTA, 1 mM PMSF, 1 mM Na3VO4, 5 mM NaF), supplemented with a protease inhibitor cocktail (Roche, Mannheim, Germany), for 30 minutes at 4° C., then sonicated. Total cell lysates were clarified by centrifugation at 12,000 rpm for 10 minutes at 4° C. and then stored at −80° C. until analysis.
(§3) Protein levels were measured by spectrophotometry, and protein (50 μg) was loaded and resolved using an acrylamide SDS-PAGE gel, and finally transferred onto a nitrocellulose membrane (Amersham Biosciences, Milan, Italy). Protein transfer efficiency was evaluated by Ponceau S staining (Sigma-Aldrich). […] Protein levels were quantified by measuring optical density of specific bands using a UVI-TEC System (Eppendorf, Hamburg, Germany). […]

[4] = tested on: PPARγ and EMA protein in SZ95-SF cells; assay: Western blot of PPARγ and EMA (sebocyte differentiation) in SZ95-SF cells; conditions: 24 hours
Method: as §1, §2, §3

SZ95 sebocytes [5] = assay: LC-MS analysis of 5-HETE and 15-HETE in SZ95 cell media; conditions: SZ95-SF and SZ95-S sebocytes, insulin and NAC-GED0507
Method: as §1
Levels of the polyunsaturated fatty acids 5-hydroxyeicosatetraenoic acid (5-HETE) and 15-hydroxyeicosatetraenoic acid (15-HETE) in cell media were measured by HPLC\MS\MS. Chromatographic separation was carried out using an Agilent Technologies 1200 HPLC Liquid Chromatography System (Palo Alto, Calif., USA) with a Symmetry C18 column ([…], 100 mm×2.1 mm; Waters, Milford, Mass., USA) as previously reported (Furugen A et al., (2015) “Simultaneous quantification of leukotrienes and hydroxyeicosatrienoic acids in cell culture medium using liquid chromatography/tandem mass spectrometry” Biomed Chromatogr 29:1084-1093). […] For each compound to be quantified, an internal standard was selected and a linear curve was generated where the ratio of analyte standard peak area to internal standard peak area was plotted against the amount of analyte standard. The results were calculated as nM/106 cells and then reported as % variation vs control values. […]

[6] = tested on: IL-6 release from SZ95 sebocytes; assay: IL-6 release ELISA in SZ95 sebocytes; conditions: all sebocytes (SZ95-SF and SZ95-S), 0.1 μM insulin
Method: as §1
SZ95 culture supernatants were collected and centrifuged to remove cell debris. Aliquots were then stored at −80° C. until use. IL-6 protein level was determined by ELISA (Life Technologies, Invitrogen; Milan, Italy), and normalized for cell number. In stratum corneum specimens, concentration of IL-1α was assessed by ELISA (Life Technologies, Invitrogen, Milan, Italy), and normalized against the total amount of soluble protein. Levels of IL-1α were reported as pg/pg protein. The results represent the average of three independent experiments performed in triplicate.
To determine the effect of insulin exposure on inflammatory cytokine release in sebocytes at different stages of differentiation, IL-6 release was measured by ELISA following exposure of SZ95-SF and SZ95-S sebocytes to 0.1 μM insulin.

[7] = tested on: SREBP-1, FAS, FADS-2, SCD-1, DGAT1 mRNA in SZ95 sebocytes; assay: Real-time RT-PCR of lipidogenic gene mRNA in SZ95 sebocytes
Method: as §1
Total RNA was isolated using the Aurum™ Total RNA Mini kit (Bio-Rad Laboratories Srl; Milan, Italy). Total RNA quantity, purity, and the absence of ribonuclease activity were assessed by OD260/280 absorbance measurements and by agarose gel electrophoresis. Total RNA samples were stored at −80° C. until use. Following DNAse I treatment, cDNA was synthesized using a mix of oligo-dT and random primers and RevertAid™ First Strand cDNA synthesis kit (Thermo Fisher Scientific; Monza, Italy). Quantitative real time RT-PCR was performed in a total volume of 15 μL with SYBR Green PCR Master Mix (Bio-Rad Laboratories Srl) and 200 nM concentration of each primer.
Reactions were carried out in triplicate using an iQ™ 5 iCycler supplied with the iQ™ 5 Real-Time Detection System (Bio-Rad Laboratories; Hercules, Calif., USA). Melt curve analysis was performed to confirm the specificity of the amplified products. Expression of mRNA species was normalized to the expression of GAPDH mRNA by the change in the Δ cycle threshold (ΔCt) method and calculated based on 2^−Δct.
SZ95-S and SZ95-SF sebocytes were cultured for an additional 24 hours in the presence of 0.1 μM insulin and/or 1 mM NAC-GED0507.

lipoxygenase (LOX) = assay: Lipoxygenase activity assay in SZ95 sebocyte lysates; conditions: SZ95-S and SZ95-SF cells, 0.1 μM insulin and NAC-GED0507
Method: Immortalized human SZ95 sebocytes (Zouboulis et al., 1999), showing morphologic, phenotypic, and functional characteristics of normal human sebocytes, were cultured in 5% CO2 at 37° C. in Sebomed basal medium, 1% L-glutamine, 1% penicillin/streptomycin, 5 ng/mL recombinant human epidermal growth factor, and 1 mM CaCl2, with or without 10% FBS supplement. All experiments were performed at least in triplicate. Lipoxygenase (LOX) activity was evaluated spectrophotometrically by monitoring the conversion of the LOX substrate linoleic acid (LA) to the corresponding hydroperoxy fatty acid. SZ95 sebocytes were lysed in 50 mM Tris/HCl buffer (pH 7.4) (Merck; Darmstadt, Germany) by repeated freezing in liquid nitrogen and thawing. Protein content was determined by Bradford assay using bovine serum albumin as the protein standard. Aliquots of supernatants containing 50 μg of protein were added to Tris/HCl buffer containing 200 μM LA in a final volume of 1 mL. All reactions were performed in 1-cm path length quartz cuvettes. The absorbance at 234 nm was recorded at room temperature for 10 minutes using a Lambda 25 UV/Vis spectrophotometer (Perkin-Elmer, UK). SZ95 sebocytes cultured under serum and serum-free conditions were analyzed for LOX expression. SZ95-SF sebocytes expressed slightly higher basal levels of LOX compared to SZ95-S sebocytes (data not shown). […]

[8] = SZ95-SF cells, pre-treatment with NAC-GED0507

insulin-induced increase in LOX activity (lipoxygenase (LOX)): inhibited
SMILES: CO[C@@H](Cc1ccc(NC(C)=O)cc1)C(=O)O [NAC-GED0507, N-acetyl-(S)-3-(4′-aminophenyl)-2-methoxypropionic acid]
cell viability (SZ95 sebocytes [1]): No significant changes | metabolic activity (SZ95 sebocytes [1]): No significant changes | production of mono-unsaturated fatty acids in response to insulin (SZ95 sebocytes [2]; SZ95-SF sebocytes): significantly inhibited | production of poly-unsaturated fatty acids in response to insulin (SZ95 sebocytes [2]; SZ95-SF sebocytes): significantly inhibited | total fatty acid synthesis stimulated by insulin (SZ95 sebocytes [2]; SZ95-SF sebocytes): significantly inhibited | inhibition of unsaturated fatty acid production in SZ95-SF in comparison to SZ95-S sebocytes (SZ95 sebocytes [2]): relatively more robust | insulin-induced pAkt [3]: significant decrease | insulin-induced pS6 [3]: significant decrease | EMA protein expression [4]: increase | PPARγ protein expression [4]: increase | increase in 5-HETE stimulated by insulin (SZ95 sebocytes [5]): countered the increase | increase in 15-HETE stimulated by insulin (SZ95 sebocytes [5]): countered the increase | IL-6 cytokine release [6]: significantly reduced | up-regulation of lipidogenic genes (SREBP-1, FAS, FADS-2, SCD-1 mRNA) observed with insulin alone ([7]; 0.1 μM insulin and 1 mM NAC-GED0507, 24 hours): significantly inhibited | DGAT1 mRNA levels (decreased by insulin) ([7]; SZ95-SF cells, 0.1 μM insulin): countered the effects of insulin exposure | insulin-stimulated FADS2 mRNA expression [7, 8]: reduced the effect | insulin-stimulated SCD1 mRNA expression [7, 8]: reduced the effect | insulin-stimulated SREBP1 mRNA expression [7, 8]: reduced the effect
